Results on one compound are retold here after patent publication US20070155827A1, “USE OF BENZO-FUSED HETEROCYCLE SULFAMIDE DERIVATIVES FOR THE TREATMENT OF DEPRESSION” (priority 2005, published 2007).

Entries after “also recorded” stand apart in the source; their conditions may differ.

The subject of this assay is submissive rats. Description: Dominant-Submissive Relations (DSR) assay: Reduction of Submissive Behavior Model (RSBM) of depression. The format is in vivo, Male Sprague Dawley rats. The method, then:
The DSR assay is divided into two models: Reduction of Dominant Behavior Model (RDBM) of mania and Reduction of Submissive Behavior Model (RSBM) of depression. The RDBM, wherein the dominant animals are treated with test compound, is predictive of the ability of the test compound to treat mania. The RSBM, wherein the submissive animals are treated with test compound, is predictive of the ability of the test compound to treat depression.
Male Sprague Dawley rats (140 to 160 g) from Charles River Laboratories Wilmington, Mass. were used in this assay. Shipments of rats were received at two-week intervals. Each shipment went through five-day quarantine, one-week acclimation period, and one-week selection process, followed by five-weeks of drug or vehicle treatment to those pairs selected.
Rats were housed four per cage. Access to food was restricted to one hour per day after testing on Monday through Thursday. After testing on Friday, rats had free access to food until being fasted again on Sunday. At no time were the rats deprived of water. The food deprivation periods used had little effect on weight gain as the average weight of rats was about 300 g at the end of the study. At the conclusion of experiment rats were sacrificed by decapitation, the trunk blood and brains were collected for in vitro experiments and drug concentration measurements.
The basic testing apparatus consisted of two chambers connected with a tunnel only large enough to allow one rat to pass through at a time. On the floor, at the mid-point of the tunnel was a container of sweetened milk. This basic apparatus was replicated, so that a total of four pairs of rats can be video tracked simultaneously. The camera can distinguish rats marked by different colors. Thus, the rats' heads were colored for the purpose of video tracking, red in one cage and yellow in the other cage. Only one animal at a time can have comfortable access to the feeder, but both animals can drink milk during the five-minute daily session. During the five-minute daily sessions, time spent in the feeder zone by each rat was recorded by the video tracking software and saved into a text file.
The test began with a random assignment of rats into pairs. Each member of a pair was placed in an opposite chamber of the testing apparatus. The time spent in the feeder zone by each animal was recorded. During the first week (five days) of testing the animals habituate to the new environment. Dominance was assigned to the animal with the highest score during the second week of testing if three criteria were achieved. First, there must have been a significant difference (two-tailed t-test, P<0.05) between the average daily drinking scores of both animals. Second, the dominant animal score must have been at least 25% greater than the submissive animal's score. Finally, there must have been no “reversals” during the pair selection week where the putative submissive rat out-scored its dominant partner on isolated occasions. Ideally there were minimal reversals during the acclimation week as well. About twenty-five to thirty-three percent of the initial animal pairs achieved these criteria and only these pairs were continued in the study.
Significant differences between time spent on the feeder by dominant and submissive rats were determined by ANOVA using GraphPad Prism software (GraphPad Software, Inc. San Diego, Calif.) followed by a two-tailed t-test (P<0.05). Comparisons were made between treatment groups using normalized dominance level values in paired animals. The dominance level is a value that measures social relation between paired subjects. Dominance level (DL)=FTD−FTS where FTD is the feeder time of dominant rats and FTS is the feeder time of submissive rats. The normalization was conducted according to the formula: Dominance Level (week n in %)=(Dominance Level (week n))/(Dominance Level (week 2) […]

For `NS(=O)(=O)NC[C@H]1COc2cc(Cl)ccc2O1` [Compound #8, (2S)-(−)-N-(6-Chloro-2,3-dihydro-benzo[1,4]dioxin-2-ylmethyl)-sulfamide], the “Dominance Level (DL) values vs vehicle control” value reads like this: (2.5 mg/kg p.o.) “did not significantly differ from control”; (12.0 mg/kg p.o.) “significantly different from vehicle treated controls after the second, fourth and fifth week of treatment”; (60 mg/kg p.o.) “significant difference in DL values relative to vehicle starting at the first week and continuing through the treatment duration of 5 weeks”; (120 mg/kg p.o.) “significantly different from the control group after first week, however, this significance dissipated after the second week of treatment”. The “consistent loss of significance between dominant and submissive rats feeder time” value (2.5 mg/kg p.o.) is given as “no consistent loss of significance”; the “consistent loss of significance between dominant and submissive rats feeder time” value (120.0 mg/kg p.o.) is “no consistent loss of significance”. The “difference in DL values with fluoxetine treated group” value (60.0 mg/kg p.o. vs fluoxetine 10 mg/kg) is “statistically significant at p<0.001 after first week and p<0.05 after second week of treatment”. The “loss of significant difference between dominant and submissive rats” value (Compound #8 p.o., all doses used (2.5, 12, 60, 120 mg/kg)) is on record as “lost after the first week of treatment”. Also, the “increased submissiveness during first week of treatment (effect seen with fluoxetine)” value (Compound #8 treated groups, p.o.) is “did not show this effect”. For the setting “Rattus norvegicus, po, RSBM, calculated”, the ED50 – broadly, the dose at which the effect has come halfway, by size or by number of responders – is 6.6 ± 0.8 mg/kg. Further, the “reduction of submissive behavior” value (p.o. once a day for 5 weeks to submissive rats, 2.5-120 mg/kg) is on record as “reduce submissive behavior in a dose-dependent manner; also recorded: reduced submissive behavior”.
